This note sets out measurements from ChEMBL document CHEMBL1140266, “(2R)-2-methylchromane-2-carboxylic acids: discovery of selective PPARalpha agonists as hypolipidemic agents” (Bioorg Med Chem Lett, 2005).

Assay [1] concerns Cricetinae gen. sp. The assay is classed as functional. The following applies: at 100 mg/kg.
The subject of assay [2] is Cricetinae gen. sp. The assay is classed as functional. To be noted: at 100 mg/kg. This is another data set of the same source.

For the compound `CC(C)OC(=O)C(C)(C)Oc1ccc(C(=O)c2ccc(Cl)cc2)cc1` [FENOFIBRATE], the Efficacy in assay [1] was -43%; in assay [2], -23%.
